Reference: patent publication US10689377B2 (Mirati Therapeutics, Inc., priority 2017, dated 2020)

These compounds were tested against KRas G12C (Homo sapiens, UniProt P01116, G12C) (assay: Cellular inhibition of KRas G12C measured by Phospho-ERK in NCI-H358 cells). Conditions: pERK(Thr202/Tyr204) normalized with GAPDH, NCI-H358 cells, 3 hours; read-out: IC50.
Format: cell-based
Summary of the method: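 NCI-H358 cells treated 3 h with compound (0.5% DMSO final), then fixed and methanol-permeabilised. In-cell immunofluorescence measured pERK(Thr202/Tyr204) normalised to GAPDH as percent of DMSO control. IC50 from a 4-parameter dose-response fit.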

KRas G12C, sequence (P01116 1-188 isoform P01116-2 G12C): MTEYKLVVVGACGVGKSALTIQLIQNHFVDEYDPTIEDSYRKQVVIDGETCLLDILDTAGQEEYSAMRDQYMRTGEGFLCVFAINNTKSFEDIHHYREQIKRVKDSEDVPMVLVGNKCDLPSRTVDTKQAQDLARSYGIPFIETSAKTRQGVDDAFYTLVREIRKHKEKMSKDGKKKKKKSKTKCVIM

Compound	IC50 [nM]
C=CC(=O)N1CCN(c2nc(O[C@H](C)CN3CC[C@H](O)C3)nc3c2CCN(c2cc(O)cc4ccccc24)C3)CC1 [Example 65, 1-(4-(7-(3-hydroxynaphthalen-1-yl)-2-(((R)-1-((S)-3-hydroxypyrrolidin-1-yl)propan-2-yl)oxy)-5,6,7,8-tetrahydropyrido[3,4-d]pyrimidin-4-yl)piperazin-1-yl)prop-2-en-1-one]	> 1000
C=CC(=O)N1CCN(c2nc(OC[C@@H]3C[C@@H](F)CN3C(C)C)nc3c2CCN(c2cncc(F)c2C(F)(F)F)C3)C[C@@H]1CC#N [Example 386, 2-((S)-1-acryloyl-4-(2-(((2S,4R)-4-fluoro-1-isopropylpyrrolidin-2-yl)methoxy)-7-(5-fluoro-4-(trifluoromethyl)pyridin-3-yl)-5,6,7,8-tetrahydropyrido[3,4-d]pyrimidin-4-yl)piperazin-2-yl)acetonitrile]	0.1 to 1000
C=C(F)C(=O)N1CCN(c2ncnc3c2CCN(c2cncc4cccc(Cl)c24)C3)C[C@@H]1CC#N [Example 612, (S)-2-(4-(7-(5-chloroisoquinolin-4-yl)-5,6,7,8-tetrahydropyrido[3,4-d]pyrimidin-4-yl)-1-(2-fluoroacryloyl)piperazin-2-yl)acetonitrile]	> 1000
C=CC(=O)N1CCN(c2nc(OCC3CCN(C)C3)nc3c2CCN(c2c(C)ccc4[nH]ncc24)C3)CC1 (stereo not drawn) [Example 161, 1-[4-[7-(5-methyl-1H-indazol-4-yl)-2-[(1-methylpyrrolidin-3-yl)methoxy]-6,8-dihydro-5H-pyrido[3,4-d]pyrimidin-4-yl]piperazin-1-yl]prop-2-en-1-one]	> 1000
C=CC(=O)N1CC2(C1)CN(c1nc(OC(C)CN(C)C)nc3c1CCN(c1cc(O)cc4ccccc14)C3)C2 (stereo not drawn) [Example 18, 1-(6-(2-((1-(dimethylamino)propan-2-yl)oxy)-7-(3-hydroxynaphthalen-1-yl)-5,6,7,8-tetrahydropyrido[3,4-d]pyrimidin-4-yl)-2,6-diazaspiro[3.3]heptan-2-yl)prop-2-en-1-one]	> 1000
C=CC(=O)N1CCN(c2nc(O[C@H](C)CN3CCN(C(C)=O)CC3)nc3c2CCN(c2cc(O)cc4ccccc24)C3)CC1 [Example 36, (R)-1-(4-(2-((1-(4-acetylpiperazin-1-yl)propan-2-yl)oxy)-7-(3-hydroxynaphthalen-1-yl)-5,6,7,8-tetrahydropyrido[3,4-d]pyrimidin-4-yl)piperazin-1-yl)prop-2-en-1-one]	> 1000
C=CC(=O)N1CCN(c2nc(OCCN3CCC(OC)C3)nc3c2CCN(c2cc(O)cc4ccccc24)C3)CC1 (stereo not drawn) [Example 136, 1-[4-[7-(3-hydroxy-1-naphthyl)-2-[2-(3-methoxypyrrolidin-1-yl)ethoxy]-6,8-dihydro-5H-pyrido[3,4-d]pyrimidin-4-yl]piperazin-1-yl]prop-2-en-1-one]	> 1000

The next lines start with the values.

IC50 [nM]	Compound
> 1000	C=C(F)C(=O)N1CCN(c2nc(OC[C@@H]3[C@H](O)CC(=O)N3C)nc3c2CCN(c2cccc4cccc(Cl)c24)C3)C[C@@H]1CC#N [Example 573, 2-[(2S)-4-[7-(8-Chloro-1-naphthyl)-2-[[(2R,3R)-3-hydroxy-1-methyl-5-oxo-pyrrolidin-2-yl]methoxy]-6,8-dihydro-5H-pyrido[3,4-d]pyrimidin-4-yl]-1-(2-fluoroprop-2-enoyl)piperazin-2-yl]acetonitrile]
> 1000	C=CC(=O)N1CCN(c2nc(OCCN(C)C)nc3c2CCN(c2cc(O)cc4ccccc24)C3)CC1C(=O)N(C)C (stereo not drawn) [Example 51, 1-acryloyl-4-(2-(2-(dimethylamino)ethoxy)-7-(3-hydroxynaphthalen-1-yl)-5,6,7,8-tetrahydropyrido[3,4-d]pyrimidin-4-yl)-N,N-dimethylpiperazine-2-carboxamide]
0.1 to 1000	C=CC(=O)N1CCN(c2nc(OC[C@@H]3CCCN3C)nc3c2CCN(c2cnccc2C2CC2)C3)C[C@@H]1CC#N [Example 352, 2-[(2S)-4-[7-(4-cyclopropyl-3-pyridyl)-2-[[(2S)-1-methylpyrrolidin-2-yl]methoxy]-6,8-dihydro-5H-pyrido[3,4-d]pyrimidin-4-yl]-1-prop-2-enoyl-piperazin-2-yl]acetonitrile]
> 1000	CN(C)C/C=C(/F)C(=O)N1CCN(c2nc(OC[C@@H]3CCCN3C)nc3c2CCN(c2cccc4cccc(Cl)c24)C3)C[C@@H]1CC#N [Example 503, 2-[(2S)-4-[7-(8-chloro-1-naphthyl)-2-[[(2S)-1-methylpyrrolidin-2-yl]methoxy]-6,8-dihydro-5H-pyrido[3,4-d]pyrimidin-4-yl]-1-[(E)-4-(dimethylamino)-2-fluoro-but-2-enoyl]piperazin-2-yl]acetonitrile]
> 1000	C=CC(=O)N1CCN(c2ncnc3c2CCN(c2cccc4ccccc24)C3)CC1 [Example 3, 1-(4-(7-(naphthalen-1-yl)-5,6,7,8-tetrahydropyrido[3,4-d]pyrimidin-4-yl)piperazin-1-yl)prop-2-en-1-one]
0.1 to 1000	C=CC(=O)N1CCN(c2nc(OC[C@@H]3CCCN3C)nc3c2CCN(c2ccc(F)c(C)c2C)C3)C[C@@H]1CC#N [Example 424, 2-((S)-1-acryloyl-4-(7-(4-fluoro-2,3-dimethylphenyl)-2-(((S)-1-methylpyrrolidin-2-yl)methoxy)-5,6,7,8-tetrahydropyrido[3,4-d]pyrimidin-4-yl)piperazin-2-yl)acetonitrile]
> 1000	C=CC(=O)N1CCN(c2nc(OC[C@@H]3CCCN3C)nc3c2CCN(c2cnccc2OC)C3)C[C@@H]1CC#N [Example 340, 2-((S)-1-acryloyl-4-(7-(4-methoxypyridin-3-yl)-2-(((S)-1-methylpyrrolidin-2-yl)methoxy)-5,6,7,8-tetrahydropyrido[3,4-d]pyrimidin-4-yl)piperazin-2-yl)acetonitrile]
0.1 to 1000	CC#CC(=O)N1CCN(c2nc(OC[C@@H]3CCCN3C)nc3c2CCN(c2cccc4cccc(Cl)c24)C3)C[C@@H]1CC#N [Example 391, 2-((S)-1-(but-2-ynoyl)-4-(7-(8-chloronaphthalen-1-yl)-2-(((S)-1-methylpyrrolidin-2-yl)methoxy)-5,6,7,8-tetrahydropyrido[3,4-d]pyrimidin-4-yl)piperazin-2-yl)acetonitrile]
0.1 to 1000	CCN1CCC[C@H]1COc1nc2c(c(N3CCN(C(=O)/C=C/CN(C)C)[C@@H](CC#N)C3)n1)CCN(c1cccc3ccccc13)C2 [Example 401, 2-((S)-1-((E)-4-(dimethylamino)but-2-enoyl)-4-(2-(((S)-1-ethylpyrrolidin-2-yl)methoxy)-7-(naphthalen-1-yl)-5,6,7,8-tetrahydropyrido[3,4-d]pyrimidin-4-yl)piperazin-2-yl)acetonitrile]
> 1000	C=CC(=O)N1CCN(c2nc(O[C@H](CC)CN(C)C)nc3c2CCN(c2cc(O)cc4ccccc24)C3)CC1 [Example 60, (R)-1-(4-(2-((1-(dimethylamino)butan-2-yl)oxy)-7-(3-hydroxynaphthalen-1-yl)-5,6,7,8-tetrahydropyrido[3,4-d]pyrimidin-4-yl)piperazin-1-yl)prop-2-en-1-one]
0.1 to 1000	C=CC(=O)N1CCN(c2nc(OC[C@@H]3CCCN3C)nc3c2CCN(c2ccc(F)c4ccccc24)C3)CC1CC#N (stereo partly drawn) [Example 246, 2-[4-[7-(4-fluoro-1-naphthyl)-2-[[(2S)-1-methylpyrrolidin-2-yl]methoxy]-6,8-dihydro-5H-pyrido[3,4-d]pyrimidin-4-yl]-1-prop-2-enoyl-piperazin-2-yl] acetonitrile]
